Measurements as given in patent US8673890B2, “2,3-dihydro-1H-isoindol-1-imine derivatives useful as thrombin PAR-1 receptor antagonist” (Janssen Pharmaceutica NV, priority 2009, dated 2014).
Values joined by “and” are separate entries in the source; they are usually repeats but may differ in a detail not shown here. Equal entries are not always repeated.

Key:
[1] = biological target: T1, thrombin receptor (PAR-1) (Homo sapiens, UniProt P25116); assay: FLIPR-based calcium-flux assay with human smooth muscle cells (Har peptide agonist); format: cell-based; conditions: HSMC; 30 nM Har (PAR1) peptide agonist; 80-min drug incubation; multiple values = individual measurements
T1 construct: Human aortic smooth muscle cells (HSMC) were purchased from Cascade Biologics; host or cells: human aortic smooth muscle cells (HSMC)
T1 sequence (P25116 22-425): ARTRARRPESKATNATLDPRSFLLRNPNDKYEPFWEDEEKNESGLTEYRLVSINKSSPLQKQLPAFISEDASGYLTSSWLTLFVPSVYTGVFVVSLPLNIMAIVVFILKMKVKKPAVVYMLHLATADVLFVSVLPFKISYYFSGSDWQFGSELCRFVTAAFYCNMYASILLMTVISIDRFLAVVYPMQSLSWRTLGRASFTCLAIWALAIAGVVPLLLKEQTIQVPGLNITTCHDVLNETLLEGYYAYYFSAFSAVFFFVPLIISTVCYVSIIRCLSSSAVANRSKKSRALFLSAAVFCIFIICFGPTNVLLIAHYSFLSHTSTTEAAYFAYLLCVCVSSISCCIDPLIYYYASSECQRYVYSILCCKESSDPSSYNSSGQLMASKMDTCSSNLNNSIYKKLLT
Description: Human aortic smooth muscle cells (HSMC) were purchased from Cascade Biologics (Portland, Oreg.) and cultured in M-231 containing smooth muscle cell growth supplement and 1× Antibiotic-Antimycotic.
To determine agonist concentration for compound testing: On the day prior to the assay, 100 μL of cells (2×10^5/mL) were seeded in clear, flat-bottom black-wall, tissue culture treated polystyrene 96-well plates and incubated at 37° C., 5% CO2. On the day of the assay, 50 μL of complete dye loading solution (FLIPR Calcium 3 Kit, Molecular Devices) was added to each well containing 100 μL of culture media. The cells were incubated for 30-45 min at 37° C., in 5% CO2 before initiating the assay on the FLIPR. The agonist effect of PAR1 peptide (S-(p-F-Phe)-Har-L-Har-KY-NH2; Har=homoarginine; referred to herein as “Har” peptide) was tested and the EC50 was determined. The EC60-70 dose was used (30 nM) for compound testing.
Compound testing: On the day prior to the assay, 90 μL of cells (2.2×10^5/mL) were seeded in clear, flat-bottom black-wall, tissue culture treated polystyrene 96-well plates and incubated at 37° C., 5% CO2. On the day of the assay, the test compounds were prepared at 10× in 3% DMSO Hanks buffer and 10 μL was added to each well (final DMSO concentration of 0.3%). The cells were incubated 20 min at 37° C., 5% CO2. Culture medium containing testing compounds was dumped and the cells were washed four times with DPBS containing 0.1% of BSA and re-fed with 80 μL of growth medium. 70 μL of BD (fluorescent) dye was loaded to the cells and incubated 45 min at 37° C. incubator. The plates were equilibrated to room temperature for 15 min. 4× PAR1 peptide (30 nM final concentration) agonist plate and the cell plate were placed in FLIPR's assay chamber. 50 μL agonist was added to the cells and data was recorded for 5 min. Raw fluorescence data was exported for each well and tabulated versus time within an ASCII file. Data was then imported into Excel® and the peak response over basal level was determined. The percent inhibition for each test compound was calculated by the changes of fluorescent density as a % inhibition of the control Har peptide response to obtain an IC50.
Representative compounds of the present invention were tested according to the procedure described in Biological Example 1 above, with results in Table 8 below. In Table 8 below, where multiple values are listed for a particular compound, said numbers represent individual measurements (tests) for said compound.

[2] = test system: platelets in platelet-rich plasma; assay: Har peptide-induced platelet aggregation in platelet-rich plasma; format: cell-based, human; conditions: multiple values = individual measurements
Description: (§1) The procedure for this assay is similar to that described in Biological Example 2, above. Briefly, platelet aggregation studies were performed according to the method of Bednar et al. (Bednar, B., Condra, C., Gould, R. J., and Connolly, T. M., Thromb. Res., 77:453-463 (1995)). Platelet-rich plasma (PRP) concentrates prepared from healthy volunteers who were aspirin free for at least 7 days by venipuncture using EDTA as anticoagulant was purchased from Biological Specialties, Inc. (Colmar, Pa.). PPP (platelet-poor-plasma) was obtained by centrifugation of PRP at Max (3,000 rpms) for 15 min at room temperature. PRP was diluted to yield platelet count of 300×10^3 platelets/μL with PPP. For thrombin induced platelet aggregation: 118 μL of 500 mM GPRP-NH2 was added to 12 mL of 300×10^3 platelets before using (to clean the fibrinogen in the plasma.) GPRP was added just before the experiment. 15 μL of test compound solutions were added to 120 μL of platelets 5 min prior the agonist additions. Platelet aggregation was initiated by the addition of agonist shown to achieve 60-70% aggregation. Antagonist potency was estimated as a % inhibition of the control Har peptide or thrombin response to obtain an IC50.
(§2) Where multiple values are listed for a particular compound, said numbers represent individual measurements (tests) for said compound.

[3] = test system: platelets in platelet-rich plasma; assay: Thrombin-induced platelet aggregation in platelet-rich plasma; format: cell-based, human; conditions: for inhibition at 10 µM: 10 μM compound; for IC50: multiple values = individual measurements
Description: as §1, §2

IC50 [1]	IC50 ([2]; Homo sapiens, Platelet) [nM]	IC50 [2]	IC50 ([3]; Homo sapiens, Platelet) [nM]	IC50 [3]	Structure (SMILES)	inhibition at 10 µM ([3]; Homo sapiens) [%]
0.13 µM and 0.068 µM	–	–	–	–	CC(C)(C)c1cc(C(=O)CN2Cc3cc4c(cc3C2=N)OCCCO4)cc(C(C)(C)C)c1O [Compound 4, 1-(3,5-di-tert-butyl-4-hydroxyphenyl)-2-(7-imino-3,4-dihydro-[1,4]dioxepino[2,3-f]isoindol-8(2H,7H,9H)-yl)ethanone]	–
0.032 µM	–	–	–	–	CC(C)(C)c1cc(C(=O)CN2Cc3cc4c(cc3C2=N)OCCCCO4)cc(C(C)(C)C)c1O [Compound 5]	–
0.16 µM	–	–	–	–	CC1(C)COc2cc3c(cc2OC1)C(=N)N(CC(=O)c1cc(C(C)(C)C)c(O)c(C(C)(C)C)c1)C3 [Compound 9]	–
0.551 µM	–	–	–	–	CC(C)(C)c1cc(C(=O)CN2Cc3cc4c(cc3C2=N)OCC(CCN2CCOCC2)CO4)cc(C(C)(C)C)c1O (centres unmarked) [Compound 12]	–
> 3 µM	–	–	–	–	CC(C)(C)c1cc(C(=O)CN2Cc3cc4c(cc3C2=N)OCC(CCN2CCCC2)CO4)cc(C(C)(C)C)c1O (centres unmarked) [Compound 13]	–
0.78 µM	–	–	–	–	CC(C)(C)c1cc(C(=O)CN2Cc3cc4c(cc3C2=N)OCC(CC=O)CO4)cc(C(C)(C)C)c1O (centres unmarked) [Compound 14, 2-(8-(2-(3,5-di-tert-butyl-4-hydroxyphenyl)-2-oxoethyl)-7-imino-2,3,4,7,8,9-hexahydro-[1,4]dioxepino[2,3-f]isoindol-3-yl)acetaldehyde]	–
> 3 µM	–	–	–	–	CN1CCN(CCC2COc3cc4c(cc3OC2)C(=N)N(CC(=O)c2cc(C(C)(C)C)c(O)c(C(C)(C)C)c2)C4)CC1 (centres unmarked) [Compound 15]	–
> 1 µM	–	–	–	–	CN(C)CCC1COc2cc3c(cc2OC1)C(=N)N(CC(=O)c1cc(C(C)(C)C)c(O)c(C(C)(C)C)c1)C3 (centres unmarked) [Compound 16, 1-(3,5-di-tert-butyl-4-hydroxyphenyl)-2-(3-(2-(dimethylamino)ethyl)-7-imino-3,4-dihydro-[1,4]dioxepino[2,3-f]isoindol-8(2H,7H,9H)-yl)ethanone]	–
> 3 µM	–	–	–	–	CNCCC1COc2cc3c(cc2OC1)C(=N)N(CC(=O)c1cc(C(C)(C)C)c(O)c(C(C)(C)C)c1)C3 (centres unmarked) [Compound 37]	–
0.54 µM and > 1 µM and 1.2 µM	–	–	–	–	COc1c(N2CCOCC2)cc(C(=O)CN2Cc3cc4c(cc3C2=N)OCCN(C(=O)OC(C)(C)C)CCO4)cc1C(C)(C)C [Compound 41, tert-butyl 10-(2-(3-tert-butyl-4-methoxy-5-morpholinophenyl)-2-oxoethyl)-9-imino-2,3,5,6,10,11-hexahydro-[1,4,7]dioxazonino[2,3-f]isoindole-4(9H)-carboxylate]	–
0.66 µM and > 1 µM and 1.3 µM	–	–	–	–	COc1c(N2CCOCC2)cc(C(=O)CN2Cc3cc4c(cc3C2=N)OCCNCCO4)cc1C(C)(C)C [Compound 42, 1-(3-tert-butyl-4-methoxy-5-morpholinophenyl)-2-(9-imino-3,4,5,6-tetrahydro-[1,4,7]dioxazonino[2,3-f]isoindol-10(2H,9H,11H)-yl)ethanone]	–
0.45 µM and 0.68 µM	–	–	–	–	COc1c(N2CCOCC2)cc(C(=O)CN2Cc3cc4c(cc3C2=N)OCC(CCN2CCOCC2)CO4)cc1C(C)(C)C (centres unmarked) [Compound 43]	–
0.1 µM and 0.12 µM	–	–	–	–	COc1c(N2CCOCC2)cc(C(=O)CN2Cc3cc4c(cc3C2=N)OCC(CC2NCCS2)CO4)cc1C(C)(C)C (centres unmarked) [Compound 44]	–
0.15 µM and 0.18 µM	–	–	–	–	COc1c(N2CCOCC2)cc(C(=O)CN2Cc3cc4c(cc3C2=N)OCC(CCN2CCSC2)CO4)cc1C(C)(C)C (centres unmarked) [Compound 45]	–
0.094 µM and 0.1 µM	1820	1040 nM	4710	–	COc1c(N2CCOCC2)cc(C(=O)CN2Cc3cc4c(cc3C2=N)OCc2ccccc2CO4)cc1C(C)(C)C [Compound 46]	34
0.04 µM and 0.088 µM	2270	2250 nM	2540	2750 nM	CC(C)(C)c1cc(C(=O)CN2Cc3cc4c(cc3C2=N)OCc2ccccc2CO4)cc(C(C)(C)C)c1O [Compound 47]	–
0.044 µM and 0.053 µM	–	–	–	–	CC(C)(C)c1cc(C(=O)CN2Cc3cc4c(cc3C2=N)OCc2cccnc2CO4)cc(C(C)(C)C)c1O [Compound 48]	–
1.1 µM and > 3 µM and 0.75 µM	–	–	–	–	COc1c(Br)cc(C(=O)CN2Cc3cc4c(cc3C2=N)OCc2ncccc2CO4)cc1C(C)(C)C [Compound 54]	–
–	–	2430 nM and > 10000 nM and 11100 nM	> 10000	> 10000 nM	COC(=O)c1ccc2c(c1)COc1cc3c(cc1OC2)CN(CC(=O)c1cc(C(C)(C)C)c(O)c(C(C)(C)C)c1)C3=N [Compound 55]	–
0.064 µM and 0.044 µM	290	480 nM	380	–	COc1c(N2CCN(C)CC2)cc(C(=O)CN2Cc3cc4c(cc3C2=N)OCc2cccnc2CO4)cc1C(C)(C)C [Compound 71]	–
0.25 µM and 0.14 µM	> 10000	> 10000 nM	> 10000	–	CC(C)(C)c1cc(C(=O)CN2Cc3cc4c(cc3C2=N)OCc2cc(C(=O)O)ccc2CO4)cc(C(C)(C)C)c1O [Compound 72]	–
0.046 µM and 0.074 µM	630	490 nM and 830 nM	1230	1920 nM and 1550 nM	CC(C)(C)c1cc(C(=O)CN2Cc3cc4c(cc3C2=N)OCc2nccnc2CO4)cc(C(C)(C)C)c1O [Compound 77]	–
0.073 µM and 0.16 µM	> 10000	13100 nM	> 10000	> 10000 nM	COC(=O)c1ccc2c(c1)COc1cc3c(cc1OC2)C(=N)N(CC(=O)c1cc(C(C)(C)C)c(O)c(C(C)(C)C)c1)C3 [Compound 80]	–
0.054 µM and 0.082 µM and 0.014 µM	> 10000	> 10000 nM	> 10000	> 10000 nM	CC(C)(C)c1cc(C(=O)CN2Cc3cc4c(cc3C2=N)OCc2ccc(C(=O)O)cc2CO4)cc(C(C)(C)C)c1O [Compound 81]	–
0.11 µM and 0.17 µM	640	930 nM	2570	–	CC(C)(C)c1cc(C(=O)CN2Cc3cc4c(cc3C2=N)OCc2ncccc2CO4)ccc1O [Compound 82]	21
0.24 µM and 0.35 µM	–	840 nM and 1750 nM	> 10000	> 10000 nM	CC(C)(C)c1cc(C(=O)CN2Cc3cc4c(cc3C2=N)OCc2cccnc2CO4)ccc1O [Compound 83]	–
0.029 µM and 0.047 µM and 0.048 µM and 0.011 µM	2470	–	2510	–	CC(C)(C)c1cc(C(=O)CN2Cc3cc4c(cc3C2=N)OCc2cc([N+](=O)[O-])ccc2CO4)cc(C(C)(C)C)c1O [Compound 84]	–
0.043 µM and 0.02 µM	7380	> 10000 nM	> 10000	> 10000 nM	CC(C)(C)c1cc(C(=O)CN2Cc3cc4c(cc3C2=N)OCc2c(F)ccc(F)c2CO4)cc(C(C)(C)C)c1O [Compound 87]	–
0.35 µM	–	–	–	–	COC(=O)c1cc2c(cc1C(=O)OC)COc1cc3c(cc1OC2)CN(CC(=O)c1cc(C(C)(C)C)c(O)c(C(C)(C)C)c1)C3=N [Compound 102]	–
1.1 µM	–	–	–	–	COC(=O)c1cc2c(cc1C(=O)OC)COc1cc3c(cc1OC2)CN(CC(=O)c1cc(N2CCOCC2)c(OC)c(C(C)(C)C)c1)C3=N [Compound 103]	–
